Measurements: ChEMBL document CHEMBL6114997, “New curcumin derivative induces ferroptosis in MCF-7 cells through activating SLC7A11/GPX4 axis” (Bioorg Med Chem, 2025)
Active and inactive are the calls of the source. No cut-off for these calls is given here.

Key:
[1] = test system: HeLa; assay: Antiproliferative activity against human HeLa cells assessed as inhibition of cell growth by MTT assay; assay type: functional, cell-based
[2] = test system: A549; assay: Antiproliferative activity against human A549 cells assessed as inhibition of cell growth by MTT assay; assay type: functional, cell-based
[3] = test system: MCF7; assay: Antiproliferative activity against human MCF7 cells assessed as inhibition of cell growth by MTT assay; assay type: functional, cell-based
[4] = test system: HT-29; assay: Antiproliferative activity against human HT-29 cells assessed as inhibition of cell growth by MTT assay; assay type: functional, cell-based
[5] = test system: HepG2; assay: Antiproliferative activity against human HepG2 cells assessed as inhibition of cell growth by MTT assay; assay type: functional, cell-based
[6] = Antioxidant activity assessed as DPPH radical scavenging activity incubated for 30 mins in dark by absorbance based analysis; assay type: functional
[7] = Potency index, ratio of cisplatin IC50 to test compound IC50 for antiproliferative activity against human HeLa cells assessed as inhibition of cell growth by MTT assay; assay type: functional
[8] = Potency index, ratio of cisplatin IC50 to test compound IC50 for antiproliferative activity against human A549 cells assessed as inhibition of cell growth by MTT assay; assay type: functional
[9] = Potency index, ratio of cisplatin IC50 to test compound IC50 for antiproliferative activity against human MCF7 cells assessed as inhibition of cell growth by MTT assay; assay type: functional
[10] = Potency index, ratio of cisplatin IC50 to test compound IC50 for antiproliferative activity against human HT-29 cells assessed as inhibition of cell growth by MTT assay; assay type: functional
[11] = Potency index, ratio of cisplatin IC50 to test compound IC50 for antiproliferative activity against human HepG2 cells assessed as inhibition of cell growth by MTT assay; assay type: functional
[12] = test system: MCF7; assay: Induction of intracellular ROS level in human MCF7 cells at 1.5 uM incubated for 24 hrs by DCFH-DA staining based fluorescence microscopic analysis (reference value: 4.66%); assay type: functional
[13] = test system: MCF7; assay: Induction of intracellular ROS level in human MCF7 cells at 3.0 uM incubated for 24 hrs by DCFH-DA staining based fluorescence microscopic analysis (reference value: 4.66%); assay type: functional
[14] = test system: MCF7; assay: Induction of intracellular ROS level in human MCF7 cells incubated for 24 hrs by DCFH-DA staining based fluorescence microscopic analysis; assay type: functional, cell-based; conditions: dose 1.5-3 µM
[15] = test system: MCF7; assay: Induction of ferroptosis in human MCF7 cells assessed as increase in intracellular ferrous ion level by measuring increase in fluorescence at 1.5 to 3.0 micromol/L incubated for 24 hrs by ferroOrange probe based fluorescence microscopic analysis; assay type: functional, cell-based; conditions: dose 1.5-3 µmol/L
[16] = test system: MCF7; assay: Induction of ferroptosis in human MCF7 cells assessed as increase in MDA level at 1.5 micromol/L measured after 24 hrs by absorbance based analysis (reference value: 0.42 micromol/L); assay type: functional; conditions: dose 1.5 µmol/L
[17] = test system: MCF7; assay: Induction of ferroptosis in human MCF7 cells assessed as increase in MDA level at 3.0 micromol/L measured after 24 hrs by absorbance based analysis (reference value: 0.42 micromol/L); assay type: functional; conditions: dose 3 µmol/L
[18] = test system: MCF7; assay: Induction of ferroptosis in human MCF7 cells assessed as decrease in GPX4 activity at 1.5 to 3.0 micromol/L by absorbance based analysis (reference value: 5.90 mU/mg); assay type: functional; conditions: dose 1.5-3 µmol/L
[19] = test system: MCF7; assay: Induction of ferroptosis in human MCF7 cells assessed as decrease in SLC7A11 to GAPDH ratio at 1.5 to 3.0 micromol/L incubated for 24 hrs by Western blot analysis; assay type: functional, cell-based; conditions: dose 1.5-3 µmol/L
[20] = test system: MCF7; assay: Induction of ferroptosis in human MCF7 cells assessed as decrease in GPX4 to beta-actin ratio at 1.5 to 3.0 micromol/L incubated for 24 hrs by Western blot analysis; assay type: functional, cell-based; conditions: dose 1.5-3 µmol/L
[21] = test system: MCF7; assay: Induction of ferroptosis in human MCF7 cells assessed as change in GPX4 expression incubated for 24 hrs by Western blot analysis; assay type: functional, cell-based; conditions: dose 1.5-3 µmol/L

SMILES | IC50 [1] | IC50 [2] | IC50 [3] | IC50 [4] | IC50 [5] | other results
COc1cc(/C=C/C(=O)C(=Cc2ccco2)C(=O)/C=C/c2ccc(OCCCCO[N+](=O)[O-])c(OC)c2)ccc1OCCCCO[N+](=O)[O-] | 16.2 µM | 2.91 µM | 11.3 µM | 4.6 µM | 2.12 µM | Activity [6]: Weak_effect; Compound Showed Weak Effect Compared With Vitamin C
COc1cc(/C=C/C(=O)C(=Cc2cccs2)C(=O)/C=C/c2ccc(OCCO[N+](=O)[O-])c(OC)c2)ccc1OCCO[N+](=O)[O-] | 6.78 µM | 1.03 µM | 1.39 µM | 1.45 µM | 1.21 µM | Ratio IC50 [7]: >=2; Ratio IC50 [8]: >=2; Ratio IC50 [9]: >=2; Ratio IC50 [10]: >=2; Ratio IC50 [11]: >=2; Activity [12]: 12.5%; Activity [13]: 60.7%; Activity [14]: Dose-dependent-effect; Activity [15]: Active; Activity [16]: 0.84 µmol/L; Activity [17]: 1.25 µmol/L; Activity [18]: 3.52 mU/mg; Activity [19]: Active; Activity [20]: Active; Activity [21]: Dose-dependent-effect
COc1cc(/C=C/C(=O)C(=Cc2ccco2)C(=O)/C=C/c2ccc(OCCO[N+](=O)[O-])c(OC)c2)ccc1OCCO[N+](=O)[O-] | 14.2 µM | 0.8 µM | 2.32 µM | 1.28 µM | 1.61 µM | Activity [6]: Weak_effect; Compound Showed Weak Effect Compared With Vitamin C
COc1cc(/C=C/c2cc(/C=C/c3ccc(OCC4CC4)c(OC)c3)n(-c3ccc(C(=O)OCCCO[N+](=O)[O-])cc3)n2)ccc1OCC1CC1 | > 50 µM | > 50 µM | > 50 µM | > 50 µM | > 50 µM | 
COc1cc(/C=C/c2cc(/C=C/c3ccc(OCCCCO[N+](=O)[O-])c(OC)c3)n(-c3ccccn3)n2)ccc1OCCCCO[N+](=O)[O-] | > 50 µM | > 50 µM | > 50 µM | > 50 µM | > 50 µM | 
COc1cc(/C=C/c2cc(/C=C/c3ccc(OCCCCO[N+](=O)[O-])c(OC)c3)n(Cc3ccccc3)n2)ccc1OCCCCO[N+](=O)[O-] | > 50 µM | > 50 µM | > 50 µM | > 50 µM | > 50 µM | 
COc1cc(/C=C/C(=O)C(=Cc2cccs2)C(=O)/C=C/c2ccc(OCCCO[N+](=O)[O-])c(OC)c2)ccc1OCCCO[N+](=O)[O-] | 20.5 µM | 1.27 µM | 2.4 µM | 1.81 µM | 1.44 µM | Activity [6]: Weak_effect; Compound Showed Weak Effect Compared With Vitamin C
COc1cc(/C=C/c2cc(/C=C/c3ccc(OCCCO[N+](=O)[O-])c(OC)c3)n(-c3ccccc3)n2)ccc1OCCCO[N+](=O)[O-] | > 50 µM | > 50 µM | > 50 µM | > 50 µM | > 50 µM | 
COc1cc(/C=C/c2cc(/C=C/c3ccc(OCC4CC4)c(OC)c3)n(-c3ccc(C(=O)OCCCCO[N+](=O)[O-])cc3)n2)ccc1OCC1CC1 | > 50 µM | > 50 µM | > 50 µM | > 50 µM | > 50 µM | 
COc1cc(/C=C/c2cc(/C=C/c3ccc(OCCCO[N+](=O)[O-])c(OC)c3)n(Cc3ccccc3)n2)ccc1OCCCO[N+](=O)[O-] | > 50 µM | > 50 µM | > 50 µM | > 50 µM | > 50 µM | 
COc1cc(/C=C/c2cc(/C=C/c3ccc(OCCO[N+](=O)[O-])c(OC)c3)n(-c3ccc(F)cc3)n2)ccc1OCCO[N+](=O)[O-] | > 50 µM | > 50 µM | > 50 µM | > 50 µM | > 50 µM | 
COc1cc(/C=C/c2cc(/C=C/c3ccc(OCCO[N+](=O)[O-])c(OC)c3)n(-c3ccccc3)n2)ccc1OCCO[N+](=O)[O-] | > 50 µM | > 50 µM | > 50 µM | > 50 µM | > 50 µM | 
COc1cc(/C=C/c2cc(/C=C/c3ccc(OCCO[N+](=O)[O-])c(OC)c3)n(Cc3ccccc3)n2)ccc1OCCO[N+](=O)[O-] | > 50 µM | > 50 µM | > 50 µM | > 50 µM | > 50 µM | 
COc1cc(/C=C/c2cc(/C=C/c3ccc(OCCCCO[N+](=O)[O-])c(OC)c3)n(-c3ccc(C(F)(F)F)cc3)n2)ccc1OCCCCO[N+](=O)[O-] | > 50 µM | > 50 µM | > 50 µM | > 50 µM | > 50 µM | 
COc1cc(/C=C/c2cc(/C=C/c3ccc(OCCO[N+](=O)[O-])c(OC)c3)n(-c3ccc(C(F)(F)F)cc3)n2)ccc1OCCO[N+](=O)[O-] | > 50 µM | > 50 µM | > 50 µM | > 50 µM | > 50 µM | 
COc1cc(/C=C/C(=O)CC(=O)/C=C/c2ccc(O)c(OC)c2)ccc1O [CURCUMIN] | > 50 µM | 24.6 µM | 19.9 µM | 22.9 µM | > 50 µM | 
COc1cc(/C=C/C(=O)C(=Cc2cccs2)C(=O)/C=C/c2ccc(OCCCCO[N+](=O)[O-])c(OC)c2)ccc1OCCCCO[N+](=O)[O-] | > 50 µM | 7.24 µM | 18.4 µM | 10.2 µM | 2.22 µM | Activity [6]: Weak_effect; Compound Showed Weak Effect Compared With Vitamin C
COc1cc(/C=C/C(=O)C(=Cc2ccco2)C(=O)/C=C/c2ccc(OCCCO[N+](=O)[O-])c(OC)c2)ccc1OCCCO[N+](=O)[O-] | 7.6 µM | 2.06 µM | 3.66 µM | 2.5 µM | 1.74 µM | Activity [6]: Weak_effect; Compound Showed Weak Effect Compared With Vitamin C
COc1cc(/C=C/c2cc(/C=C/c3ccc(OCCCO[N+](=O)[O-])c(OC)c3)n(-c3ccc(F)cc3)n2)ccc1OCCCO[N+](=O)[O-] | > 50 µM | > 50 µM | > 50 µM | > 50 µM | > 50 µM | 
COc1cc(/C=C/c2cc(/C=C/c3ccc(OCCCO[N+](=O)[O-])c(OC)c3)n(-c3ccc(C(F)(F)F)cc3)n2)ccc1OCCCO[N+](=O)[O-] | > 50 µM | > 50 µM | > 50 µM | > 50 µM | > 50 µM | 
COc1cc(/C=C/c2cc(/C=C/c3ccc(OCCO[N+](=O)[O-])c(OC)c3)n(-c3ccccc3F)n2)ccc1OCCO[N+](=O)[O-] | > 50 µM | > 50 µM | > 50 µM | > 50 µM | > 50 µM | 
COc1cc(/C=C/c2cc(/C=C/c3ccc(OCCCCO[N+](=O)[O-])c(OC)c3)n(-c3ccccc3F)n2)ccc1OCCCCO[N+](=O)[O-] | > 50 µM | > 50 µM | > 50 µM | > 50 µM | > 50 µM | 
COc1cc(/C=C/c2cc(/C=C/c3ccc(OCCCCO[N+](=O)[O-])c(OC)c3)n(-c3ccccc3)n2)ccc1OCCCCO[N+](=O)[O-] | > 50 µM | > 50 µM | > 50 µM | > 50 µM | > 50 µM | 
COc1cc(/C=C/c2cc(/C=C/c3ccc(OCCCO[N+](=O)[O-])c(OC)c3)n(-c3ccccc3F)n2)ccc1OCCCO[N+](=O)[O-] | > 50 µM | > 50 µM | > 50 µM | > 50 µM | > 50 µM | 
COc1cc(/C=C/c2cc(/C=C/c3ccc(OCCCO[N+](=O)[O-])c(OC)c3)n(-c3ccccn3)n2)ccc1OCCCO[N+](=O)[O-] | > 50 µM | > 50 µM | > 50 µM | > 50 µM | > 50 µM | 
COc1cc(/C=C/c2cc(/C=C/c3ccc(OCCCCO[N+](=O)[O-])c(OC)c3)n(-c3ccc(F)cc3)n2)ccc1OCCCCO[N+](=O)[O-] | > 50 µM | > 50 µM | > 50 µM | > 50 µM | > 50 µM | 
